The values below come from ChEMBL document CHEMBL2074289, “Inhibition of the human organic anion transporter 1 by the caffeine metabolite 1-methylxanthine” (Biochem Biophys Res Commun, 2004).

In the series the target is T1, OAT1 (Solute carrier family 22 member 6, SLC22A6) (Homo sapiens, UniProt Q4U2R8).
T1 sequence (Q4U2R8 whole entry): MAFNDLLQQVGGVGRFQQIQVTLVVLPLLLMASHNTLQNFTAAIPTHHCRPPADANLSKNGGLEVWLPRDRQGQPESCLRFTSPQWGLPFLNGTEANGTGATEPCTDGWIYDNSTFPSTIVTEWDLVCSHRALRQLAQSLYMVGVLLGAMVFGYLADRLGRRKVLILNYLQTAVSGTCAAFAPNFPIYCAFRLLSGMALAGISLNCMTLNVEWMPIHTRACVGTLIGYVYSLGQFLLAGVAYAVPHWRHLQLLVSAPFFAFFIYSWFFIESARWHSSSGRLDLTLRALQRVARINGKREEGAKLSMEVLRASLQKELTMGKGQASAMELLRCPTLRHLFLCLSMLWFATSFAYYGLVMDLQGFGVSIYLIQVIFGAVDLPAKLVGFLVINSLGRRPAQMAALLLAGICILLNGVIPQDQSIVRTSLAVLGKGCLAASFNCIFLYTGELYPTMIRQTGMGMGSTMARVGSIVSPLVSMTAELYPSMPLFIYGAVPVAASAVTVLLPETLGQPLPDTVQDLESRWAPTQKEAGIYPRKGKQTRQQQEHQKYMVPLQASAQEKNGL
The experiment in a line: TP_TRANSPORTER: inhibition of 6-Carboxyfluorescein uptake by 1-methylxanthine at a concentration of 500uM in OAT1-expressing cell. Particulars: OAT1-expressing cells, probe 6-Carboxyfluorescein; read-out: Activity. Also noted: scale not given: the % may be the effect or the level left. In kind it is functional.

Turning to `Cn1c(=O)[nH]c2nc[nH]c2c1=O` [1-METHYLXANTHINE], the activity at 500 µM came to 50%.
